Data on 14 compounds can be found in patent publication EP3722296B1, “DIHYDRONAPHTHYRIDINES AND RELATED COMPOUNDS USEFUL AS KINASE INHIBITORS FOR THE TREATMENT OF PROLIFERATIVE DISEASES” (Deciphera Pharmaceuticals, LLC, priority 2012, dated 2013).

The target of experiment [1] is T1, c-KIT VVDV kinase (Homo sapiens, UniProt P10721, D816V/DEL559-560).
T1 construct: This construct contains residues T544-V976 of cKit; GST (N); TEV cleavage site (internal); purchased deCODE Biostructures
Kind of experiment: cKIT-VVDV kinase Assay. The experiment is classed as biochemical. To be noted: enzymatic assay; V559+V560 deletions and D816V mutation. The essentials:
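Coupled spectrophotometric format: kinase activity followed as NADH oxidation, loss of absorbance at 340 nm. Serially diluted compound mixed with the reaction mixture to start; read continuously for 5 h at 30 °C.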

Experiment [2] concerns the target T2, c-KIT T670I kinase (Homo sapiens, UniProt P10721, T670I).
T2 construct: The construct contains residues T544-V976 of cKit; GST (N); TEV cleavage site (internal); purchased deCODE Biostructures
Kind of experiment: c-KIT T670I kinase assay. To be noted: enzymatic assay. The experiment is classed as biochemical. The essentials: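 Enzyme: GST-fused, N-terminally tagged cKit bearing T670I, with TEV cleavage site. Reaction started by mixing compound dilutions with reaction mix; activity read continuously over 5 h at 30 °C as loss of 340 nm absorbance from NADH consumption.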

Experiment [3] addresses T3, Phospho-KIT (Tyr719) (Homo sapiens, UniProt P10721, DEL560-578).
T3 construct: endogenous in cells; host or cells: GIST T1
Kind of experiment: GIST T1 KIT Western Blot. The format is cell-based. To be noted: GIST T1 cells, 4 hours, serum-free medium; read-out: pKIT suppression by western blot analysi GIST T1. The protocol:
GIST48, GIST430, and GIST882 cells were obtained from J. Fletcher (Brigham and Women's Hospital, Boston, MA). GIST T1 cells were obtained from B. Rubin (Cleveland Clinic, Cleveland, OH) and Professor Takahiro Taguchi (Kochi Medical School, Nankoku, Kochi, Japan). […] GIST430 cells were grown in Ham's F10 medium supplemented with 15% characterized fetal bovine serum (Invitrogen, Carlsbad, CA), 30 mg/L bovine pituitary extract (BD Biosciences, San Jose, CA), 0.5% Mito+ serum extender (BD Biosciences, San Jose, CA), 1 unit/mL penicillin G, 1 µg/ml streptomycin, and 0.29 mg/mL L-glutamine at 37 °C, 5%CO2, 95% humidity. GIST T1 cells were grown in DMEM medium supplemented with 10% characterized fetal bovine serum (Invitrogen, Carlsbad, CA), 1 unit/mL penicillin G, 1 µg/ml streptomycin, and 0.29 mg/mL L-glutamine at 37 °C, 5% CO2, and 95% humidity. Cells were allowed to expand until reaching 70-95% confluence at which point they were subcultured or harvested for assay use.
One hundred twenty-five thousand cells were added per well in a 24-well tissue-culture treated plate. Cells were then incubated overnight at 37°C, 5% CO2, 95% humidity. Medium was aspirated, cells were washed with PBS, and serum-free DMEM medium was added. A serial dilution of test compound was added to plates containing cells and plates were incubated for 4 hours at 37°C, 5% CO2, 95% humidity. Cells were washed with PBS, then lysed. Cell lysates were separated by SDS-PAGE and transferred to PVDF. Phospho-KIT (Tyr719) was detected using an antibody from Cell Signaling Technology (Beverly, MA), ECL Plus detection reagent (GE Healthcare, Piscataway, NJ) and a Molecular Devices Storm 840 phosphorimager in fluorescence mode. Blots were stripped and probed for total KIT using an antibody from Santa Cruz Biotech (Santa Cruz, CA). IC50 values were calculated using Prism software (Graphpad, San Diego, CA).
On the technique in general: In western blotting, separated proteins are transferred to a membrane and probed.

Experiment [4] addresses T4, c-KIT V654A kinase (Homo sapiens, UniProt P10721, V654A).
T4 construct: residues T544-V976 with N-terminal GST fusion; purchased deCODE Biostructures
Briefly: c-KIT V654A Kinase Assay. The experiment is classed as biochemical. To be noted: enzymatic assay, ATP 200 µM. In a few lines: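 Kinase activity tracked by coupled NADH consumption, monitored continuously at 340 nm over 6 h at 30 °C after serially diluted compound was mixed in to start inhibition. Enzyme used was a GST-fused, N-terminally tagged cKIT T544–V976 construct with a TEV cleavage site.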

Experiment [5] deals with T5, c-KIT D816H kinase (Homo sapiens, UniProt P10721, D816H).
T5 construct: The construct contains residues T544-V976 of cKit; GST (N); TEV cleavage site (internal); purchased deCODE Biostructures
Briefly: c-KIT D816H Kinase Assay. The format is biochemical. To be noted: enzymatic assay, ATP 200 µM. The essentials:
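Mutant cKit enzyme, expressed as a GST-fusion construct carrying an N-terminal tag and TEV site, was mixed with serially diluted compound to start reactions. Activity tracked via NADH consumption, read continuously at 340 nm over 6 hours at 30 °C.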

For experiment [6], the target named is T6, c-KIT D816V kinase (Homo sapiens, UniProt P10721, D816V).
T6 construct: residues T544-V976 with N-terminal GST fusion; purchased deCODE Biostructures
Briefly: c-KIT D816V kinase Assay. The format is biochemical. To be noted: enzymatic assay, ATP 200 uM. In a few lines: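 Coupled assay in which NADH oxidation was tracked as decreasing absorbance at 340 nm, continuously for 5 hours at 30 °C after adding serially diluted compound. Enzyme: cKit residues T544-V976 with N-terminal tag, GST fusion and TEV cleavage site.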

T2 sequence (P10721 544-976 T670I): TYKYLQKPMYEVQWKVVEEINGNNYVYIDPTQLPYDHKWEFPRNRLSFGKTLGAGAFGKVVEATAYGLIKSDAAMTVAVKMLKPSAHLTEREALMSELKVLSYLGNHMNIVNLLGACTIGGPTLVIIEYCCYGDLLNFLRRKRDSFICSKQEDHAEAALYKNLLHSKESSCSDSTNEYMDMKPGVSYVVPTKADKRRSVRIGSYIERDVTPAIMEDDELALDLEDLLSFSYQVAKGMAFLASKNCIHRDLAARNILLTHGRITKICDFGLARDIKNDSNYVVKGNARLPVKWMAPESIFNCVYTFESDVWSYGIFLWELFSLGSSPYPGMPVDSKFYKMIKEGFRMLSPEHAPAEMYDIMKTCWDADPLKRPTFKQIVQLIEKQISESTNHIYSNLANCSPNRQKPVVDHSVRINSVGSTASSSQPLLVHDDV
T5 sequence (P10721 544-976 D816H): as the sequence (P10721 544-976 T670I) above, with I127T, D273H counted along it
T6 sequence (P10721 544-976 D816V): as the sequence (P10721 544-976 T670I) above, with I127T, D273V counted along it
T1 sequence (P10721 with tags, fused parts or gaps DEL559-560/D816V): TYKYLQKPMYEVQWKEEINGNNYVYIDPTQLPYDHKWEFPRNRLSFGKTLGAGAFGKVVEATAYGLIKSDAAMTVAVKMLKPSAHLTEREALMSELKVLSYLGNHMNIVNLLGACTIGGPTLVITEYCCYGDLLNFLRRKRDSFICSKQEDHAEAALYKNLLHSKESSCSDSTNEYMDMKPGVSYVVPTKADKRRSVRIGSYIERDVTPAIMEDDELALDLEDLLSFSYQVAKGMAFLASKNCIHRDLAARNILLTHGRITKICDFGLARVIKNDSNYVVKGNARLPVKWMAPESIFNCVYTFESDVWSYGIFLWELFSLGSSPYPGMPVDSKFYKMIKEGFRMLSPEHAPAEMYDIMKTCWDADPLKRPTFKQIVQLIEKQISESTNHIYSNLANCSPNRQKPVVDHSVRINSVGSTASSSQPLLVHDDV
T4 sequence (P10721 544-976 V654A): as the sequence (P10721 544-976 T670I) above, with V111A, I127T counted along it
T3 sequence (P10721 with tags, fused parts or gaps DEL560-578): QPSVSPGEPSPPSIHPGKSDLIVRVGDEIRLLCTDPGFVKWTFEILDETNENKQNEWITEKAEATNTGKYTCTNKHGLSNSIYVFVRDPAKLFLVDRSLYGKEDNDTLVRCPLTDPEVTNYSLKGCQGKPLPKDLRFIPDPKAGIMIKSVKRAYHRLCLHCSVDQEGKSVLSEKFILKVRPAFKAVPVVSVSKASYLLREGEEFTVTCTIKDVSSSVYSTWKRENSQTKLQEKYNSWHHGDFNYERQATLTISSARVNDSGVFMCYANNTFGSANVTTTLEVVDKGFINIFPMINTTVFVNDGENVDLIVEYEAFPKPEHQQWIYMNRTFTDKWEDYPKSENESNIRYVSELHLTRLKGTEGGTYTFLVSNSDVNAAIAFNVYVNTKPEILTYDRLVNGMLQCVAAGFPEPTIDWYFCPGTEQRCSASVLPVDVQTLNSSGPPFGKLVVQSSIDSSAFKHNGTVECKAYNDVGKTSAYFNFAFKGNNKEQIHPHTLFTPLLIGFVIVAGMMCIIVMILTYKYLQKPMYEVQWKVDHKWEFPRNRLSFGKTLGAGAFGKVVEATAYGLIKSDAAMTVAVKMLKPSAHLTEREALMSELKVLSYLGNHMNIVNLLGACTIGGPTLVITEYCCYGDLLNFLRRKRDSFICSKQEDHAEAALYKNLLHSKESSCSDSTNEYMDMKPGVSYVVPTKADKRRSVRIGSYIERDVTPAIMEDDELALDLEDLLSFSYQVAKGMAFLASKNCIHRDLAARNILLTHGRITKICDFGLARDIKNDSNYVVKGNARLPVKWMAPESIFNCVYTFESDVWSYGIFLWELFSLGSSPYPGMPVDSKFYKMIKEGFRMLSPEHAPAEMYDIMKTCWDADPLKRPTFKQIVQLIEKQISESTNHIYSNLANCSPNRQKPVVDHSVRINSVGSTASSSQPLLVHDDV

For the compound `CCn1c(=O)c(-c2cc(NC(=O)Nc3cccc(F)c3)c(F)cc2Cl)cc2cnc(NC)cc21` [Example 24, 1-[4-chloro-5-(1-ethyl-7-methylamino-2-oxo-1,2-dihydro-[1,6]naphthyridin-3-yl)-2-fluoro-phenyl]-3-(3-fluoro-phenyl)-urea], the IC50 in experiment [1], in experiment [2], in experiment [3], in experiment [4], in experiment [5] and in experiment [6] was below 10 nM each time.

For the compound `CCn1c(=O)c(-c2cc(NC(=O)Nc3cccc(F)c3)c(F)cc2Cl)cc2cnc(NCCOC)cc21` [Example 28, 1-(4-chloro-5-(1-ethyl-7-(2-methoxyethylamino)-2-oxo-1,2-dihydro-1,6-naphthyridin-3-yl)-2-fluorophenyl)-3-(3-fluorophenyl)urea], the IC50 in experiment [1] was 10 to 100 nM; in experiment [2], 10 to 100 nM; in experiment [3] it was below 10 nM; in experiment [4], below 10 nM; in experiment [5] it was 10 to 100 nM; in experiment [6] it was 10 to 100 nM.

Turning to `CCn1c(=O)c(-c2cc(NC(=O)Nc3cccc(F)c3)c(F)cc2Cl)cc2cnc(N)cc21` [Example 20, 1-(5-(7-amino-1-ethyl-2-oxo-1,2-dihydro-1,6-naphthyridin-3-yl)-4-chloro-2-fluorophenyl)-3-(3-fluorophenyl)urea], the IC50 in experiment [1] was below 10 nM; in experiment [2], below 10 nM; in experiment [3], below 10 nM; in experiment [4], 10 to 100 nM; in experiment [5], below 10 nM; in experiment [6] it was below 10 nM.

As for `CCn1c(=O)c(-c2cc(NC(=O)Nc3ccccc3)c(F)cc2Br)cc2cnc(N)cc21` [Example 57, 1-(5-(7-amino-1-ethyl-2-oxo-1,2-dihydro-1,6-naphthyridin-3-yl)-4-bromo-2-fluorophenyl)-3-phenylurea], the IC50 in experiment [2] is below 10 nM; in experiment [3] it was below 10 nM; in experiment [4], 10 to 100 nM; in experiment [5] it was 10 to 100 nM; in experiment [6], 100 to 1000 nM.

Regarding `CCn1c(=O)c(-c2cc(NC(=O)Nc3ccccc3)c(F)cc2C)cc2cnc(NC)cc21` [Example 23, 1-(5-(1-ethyl-7-(methylamino)-2-oxo-1,2-dihydro-1,6-naphthyridin-3-yl)-2-fluoro-4-methylphenyl)-3-phenylurea], the IC50 was 10 to 100 nM in experiment [1]; 10 to 100 nM in experiment [2]; below 10 nM in experiment [3]; below 10 nM in experiment [4]; 10 to 100 nM in experiment [5]; 10 to 100 nM in experiment [6].

For the compound `CCn1c(=O)c(-c2cc(NC(=O)Nc3csc4ccccc34)c(F)cc2Cl)cc2cnc(NC)cc21` [Example 32, 1-(benzo[b]thiophen-3-yl)-3-(4-chloro-5-(1-ethyl-7-(methylamino)-2-oxo-1,2-dihydro-1,6-naphthyridin-3-yl)-2-fluorophenyl)urea], the IC50 in experiment [1] was below 10 nM; in experiment [2], 10 to 100 nM; in experiment [3], below 10 nM; in experiment [4], 10 to 100 nM; in experiment [5], below 10 nM; in experiment [6] it was below 10 nM.

On to `CCn1c(=O)c(-c2cc(NC(=O)Nc3cccc(F)c3)c(F)cc2Br)cc2cnc(NC)cc21` [Example 50, 1-(4-bromo-5-(1-ethyl-7-(methylamino)-2-oxo-1,2-dihydro-1,6-naphthyridin-3-yl)-2-fluorophenyl)-3-(3-fluorophenyl)urea], for which the IC50 in experiment [1] is 100 to 1000 nM; in experiment [2], 10 to 100 nM; in experiment [3] it was below 10 nM; in experiment [4] it was 10 to 100 nM; in experiment [5], 10 to 100 nM; in experiment [6], 10 to 100 nM.

Consider `CCn1c(=O)c(-c2cc(NC(=O)Nc3ccccc3)c(F)cc2Cl)cc2cnc(NC)cc21` [Example 3, 1-(4-chloro-5-(1-ethyl-7-(methylamino)-2-oxo-1,2-dihydro-1,6-naphthyridin-3-yl)-2-fluorophenyl)-3-phenylurea], for which the IC50 was below 10 nM in experiment [1]; 10 to 100 nM in experiment [2]; below 10 nM in experiment [3]; below 10 nM in experiment [4]; below 10 nM in experiment [5]; 10 to 100 nM in experiment [6].

Regarding `CNc1cc2c(cn1)cc(-c1cc(NC(=O)Nc3ccccc3)c(F)cc1Cl)c(=O)n2C(C)C` [Example 22, 1-(4-chloro-2-fluoro-5-(1-isopropyl-7-(methylamino)-2-oxo-1,2-dihydro-1,6-naphthyridin-3-yl)phenyl)-3-phenylurea], the IC50 is below 10 nM in experiment [1]; 100 to 1000 nM in experiment [2]; below 10 nM in experiment [3]; 10 to 100 nM in experiment [4]; 10 to 100 nM in experiment [5]; below 10 nM in experiment [6].

As for `CCn1c(=O)c(-c2cc(NC(=O)Nc3ccccc3)c(F)cc2Cl)cc2cnc(NC(C)=O)cc21` [Example 54, 1-(5-(7-acetamido-1-ethyl-2-oxo-1,2-dihydro-1,6-naphthyridin-3-yl)-4-chloro-2-fluorophenyl)-3-phenylurea], the IC50 in experiment [1] is below 10 nM; in experiment [2], 10 to 100 nM; in experiment [3] it was below 10 nM; in experiment [4], 10 to 100 nM; in experiment [5] it was below 10 nM; in experiment [6], below 10 nM.

As to `CCn1c(=O)c(-c2cc(NC(=O)Nc3cccc4ccccc34)c(F)cc2Cl)cc2cnc(NC)cc21` [Example 6, 1-(4-chloro-5-(1-ethyl-7-(methylamino)-2-oxo-1,2-dihydro-1,6-naphthyridin-3-yl)-2-fluorophenyl)-3-(naphthalen-1-yl)urea], the IC50 in experiment [1] is below 10 nM; in experiment [2], below 10 nM; in experiment [3], 10 to 100 nM; in experiment [4], 10 to 100 nM; in experiment [5], 10 to 100 nM; in experiment [6] it was 10 to 100 nM.

For the compound `CCn1c(=O)c(-c2cc(NC(=O)Nc3cccc(F)c3)c(F)cc2C)cc2cnc(NC)cc21` [Example 44, 1-(5-(1-ethyl-7-(methylamino)-2-oxo-1,2-dihydro-1,6-naphthyridin-3-yl)-2-fluoro-4-methylphenyl)-3-(3-fluorophenyl)urea], the IC50 in experiment [1] was 10 to 100 nM; in experiment [2], 10 to 100 nM; in experiment [3] it was below 10 nM; in experiment [4], 10 to 100 nM; in experiment [5], below 10 nM; in experiment [6] it was 10 to 100 nM.

Regarding `CCn1c(=O)c(-c2cc(NC(=O)Nc3ccccc3)c(F)cc2Cl)cc2cnc(NC(=O)N(C)C)cc21` [Example 70, 3-(3-(2-chloro-4-fluoro-5-(3-phenylureido)phenyl)-1-ethyl-2-oxo-1,2-dihydro-1,6-naphthyridin-7-yl)-1,1-dimethylurea], the IC50 is below 10 nM in experiment [1]; below 10 nM in experiment [2]; below 10 nM in experiment [3]; 10 to 100 nM in experiment [4]; 10 to 100 nM in experiment [5]; below 10 nM in experiment [6].

Turning to `CCn1c(=O)c(-c2cc(NC(=O)Nc3csc4ccccc34)c(F)cc2C)cc2cnc(NC)cc21` [Example 59, 1-(benzo[b]thiophen-3-yl)-3-(5-(1-ethyl-7-(methylamino)-2-oxo-1,2-dihydro-1,6-naphthyridin-3-yl)-2-fluoro-4-methylphenyl)urea], the IC50 in experiment [1] was 10 to 100 nM; in experiment [2], 10 to 100 nM; in experiment [3] it was below 10 nM; in experiment [4], 10 to 100 nM; in experiment [5], 10 to 100 nM; in experiment [6] it was 10 to 100 nM.
